This is an account of results in patent EP4813403A1, “USE OF GLP-1R/GIPR DOUBLE-TARGET AGONIST IN PREPARING ANIMAL DRUG” (Hangzhou Zhongmeihuadong Pharmaceutical Co., Ltd., priority 2023, dated 2025).

For one assay, the target named is T1, human GIPR (Homo sapiens, UniProt P48546).
T1 construct: expressed in transfected cells
T1 sequence (P48546 22-466): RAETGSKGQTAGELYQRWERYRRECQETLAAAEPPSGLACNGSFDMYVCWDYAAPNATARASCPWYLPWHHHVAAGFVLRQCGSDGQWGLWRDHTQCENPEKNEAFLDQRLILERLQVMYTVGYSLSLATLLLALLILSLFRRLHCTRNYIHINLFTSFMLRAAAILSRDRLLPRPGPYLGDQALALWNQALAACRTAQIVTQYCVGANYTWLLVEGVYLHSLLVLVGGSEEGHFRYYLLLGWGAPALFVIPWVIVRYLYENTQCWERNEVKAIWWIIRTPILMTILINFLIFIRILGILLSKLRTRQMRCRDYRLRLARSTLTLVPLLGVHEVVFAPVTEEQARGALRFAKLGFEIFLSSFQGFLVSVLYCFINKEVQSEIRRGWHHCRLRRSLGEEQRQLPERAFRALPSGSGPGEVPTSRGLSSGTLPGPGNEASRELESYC
The assay is described as follows: Agonistic activity on GIPR of different species (LANCE Ultra cAMP assay): human. It is filed as cell-based. To be noted: ratio of EC50 value of other species to human EC50 value. Here is the method:
CHO-K1 cells were seeded in a 6-well plate at 0.6×10^6 cells/well and incubated overnight in an incubator at a temperature of 37 °C and a carbon dioxide concentration of 5%. The next day, CHO-K1 cell media were replaced. Then two tubes A and B were prepared for each plasmid. 100 µL Opti-MEM was added to tube A, then 4 µL Lipofectamine™ 3000 was added and mixed uniformly. 100 µL Opti-MEM was firstly added to tube B, then 2 µg of one of the plasmids (human GIPR-pcDNA5 (+) plasmid, dog GIPR-pcDNA5 (+) plasmid, mouse GIPR-pcDNA5 (+) plasmid, rat GIPR-pcDNA5 (+) plasmid, rabbit GIPR-pcDNA5 (+) plasmid, monkey GIPR-pcDNA5 (+) plasmid) was added and mixed uniformly, and 4 µL P3000™ was added to tube B and mixed uniformly (the ratio of plasmid to transfection reagent was 1 µg: 2 µL). […]
18-20 hours after transfection, human GIPR-CHO, dog GIPR-CHO, mouse GIPR-CHO, rat GIPR-CHO, rabbit GIPR-CHO, and monkey GIPR-CHO cells were resuspended in 1×Casein Stimulation Buffer (HBSS, 5 mM HEPES, 0.5 mM IBMX, 0.1% casein, pH7.4), and seeded into a 384-well cell culture plate at 9 µL/well (cell numbers being 1000, 2000, 2000, 2000, 2000, 2000 cells/well, respectively). […] The readings at 665 nm and 620 nm were determined with a 330 nm excitation light on a microplate reader. The 665 nm/620 nm reading ratio was calculated. […]
In general terms: In TR-FRET formats the signal depends on donor and acceptor labels being close together.

The target of the next assay is T2, mouse GLP-1R (Mus musculus, UniProt O35659).
T2 construct: expressed in transfected cells
T2 sequence (O35659 22-463): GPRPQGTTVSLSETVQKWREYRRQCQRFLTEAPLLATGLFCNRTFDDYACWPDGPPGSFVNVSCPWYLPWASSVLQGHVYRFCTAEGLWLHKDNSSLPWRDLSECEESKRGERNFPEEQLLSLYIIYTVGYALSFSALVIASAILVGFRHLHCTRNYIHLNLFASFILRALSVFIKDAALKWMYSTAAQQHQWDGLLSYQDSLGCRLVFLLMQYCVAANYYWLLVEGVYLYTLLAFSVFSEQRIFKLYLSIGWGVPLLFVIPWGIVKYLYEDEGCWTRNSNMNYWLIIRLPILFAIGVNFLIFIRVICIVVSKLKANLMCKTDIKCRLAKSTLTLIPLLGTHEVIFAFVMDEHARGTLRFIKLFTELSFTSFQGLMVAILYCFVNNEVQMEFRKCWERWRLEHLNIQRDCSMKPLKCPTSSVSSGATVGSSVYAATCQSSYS
The assay is described as follows: Agonistic activity on GLP-1R of different species (LANCE Ultra cAMP assay): mouse. It is filed as cell-based. The note with it: ratio of EC50 value of other species to human EC50 value.

For `CC[C@H](C)[C@H](NC(=O)C(C)(C)NC(=O)[C@H](Cc1ccc(O)cc1)NC(=O)[C@H](CC(=O)O)NC(=O)[C@H](CO)NC(=O)[C@@H](NC(=O)C(C)(Cc1ccccc1)NC(=O)[C@@H](NC(=O)CNC(=O)[C@H](CCC(=O)O)NC(=O)C(C)(C)NC(=O)[C@@H](N)Cc1ccc(O)cc1)[C@@H](C)O)[C@@H](C)O)C(=O)NC(C)(C)C(=O)N[C@@H](CC(C)C)C(=O)N[C@@H](CC(=O)O)C(=O)N[C@@H](CCCCN)C(=O)N[C@@H](CCC(N)=O)C(=O)N[C@@H](C)C(=O)N[C@@H](CCC(N)=O)C(=O)N[C@@H](C)C(=O)N[C@@H](CCC(=O)O)C(=O)N[C@@H](Cc1ccccc1)C(=O)N[C@H](C(=O)N[C@@H](CCCCNC(=O)COCCOCCNC(=O)COCCOCCNC(=O)COCCOCCNC(=O)CC[C@H](NC(=O)CCCCCCCCCCCCCCCCCCCCC(=O)O)C(=O)O)C(=O)N[C@@H](Cc1c[nH]c2ccccc12)C(=O)N[C@@H](CC(C)C)C(=O)N[C@@H](CC(C)C)C(=O)N[C@@H](CCCCN)C(=O)NCC(=O)NCC(=O)N1CCC[C@H]1C(=O)N[C@@H](CO)C(=O)N[C@@H](CO)C(=O)NCC(=O)N[C@@H](C)C(=O)N1CCC[C@H]1C(=O)N1CCC[C@H]1C(=O)N1CCC[C@H]1C(=O)N[C@@H](CO)C(=O)N[C@@H](CCCCN)C(N)=O)C(C)C` (some centres unmarked) [Compound P016], the “GIPR EC50 ratio” value on human GIPR turned out to be 1.00. The “GLP-1R EC50 ratio” value at mouse GLP-1R was determined as 1.09.
